From US9549911B2, “Ginger metabolites and uses thereof” (North Carolina A&T State University, priority 2012, dated 2017)
Read-outs that look alike come from different tables or passages of the source.

Tests used:
H-1299 cells = assay: TUNEL apoptosis assay (Part 1); assay type: cell-based, human; details: 24 h
Experimental: (§1) HCT-116 and H-1299 cells were seeded in six-well plates at 1.0×10^5 cells/well and were incubated at 37° C. in a 5% CO2 incubator. After 24 h, fresh media supplemented with DMSO (control), [6]-shogaol (10 or 20 μM), M9 (40 or 80 μM), or M11 (40 or 80 μM) were added to the wells. After 24-h incubation, cells were washed and pretreated for 15 min at room temperature with a solution of 20 μg/ml proteinase K. Cells were then washed twice with PBS pH 7.4 and were fixed for 10 min at room temperature using 10% neutral formaldehyde solution. After two washes in distilled H2O, cells were resuspended in 100 μl of distilled H2O and were applied on silanized microscope slides. Slides were incubated overnight at 37° C. and were washed twice with PBS. Terminal deoxynucleotidyl transferase deoxyuridine triphosphate nick-end labeling (TUNEL) assay was then performed according to the manufacturer's protocol. Cells were observed under 400× power using a Zeiss A1 microscope (Carl Zeiss, Inc., Thornwood, N.Y.).
(§2) Ten fields per slide were evaluated, and TUNEL-positive cells (with brown coloration in the nucleus) were expressed as a percentage of the total number of cells contained in a field. Statistical Analysis. For simple comparisons between two groups, twotailed Student's t test was used. A p value of less than 0.05 was considered statistically significant in all the tests.

HCT-116 cells = assay: TUNEL apoptosis assay (Part 1); assay type: cell-based, human; details: 24 h
Experimental: as §1, §2

[1] = Kinetic study of [6]-shogaol metabolism to M6 in liver microsomes; details: human liver microsomes 0.1 mg/mL, 30 min, [6]-shogaol 7.8 to 2000 μM
Experimental: To estimate kinetic parameters of metabolism of [6]-shogoal to major product M6 in liver microsomes from human and other species, the incubation conditions were optimized to ensure that formation rate of M6 was in the linear range in relation to incubation time and protein concentration. [6]-Shogaol (7.81, 15.63, 31.25, 62.5, 125, 250, 500, 1000, and 2000 μM) was incubated with liver microsomes from mouse (MLM), rat (RLM), dog (DLM), monkey (CyLM), and human (HLM) (0.1 mg/mL each, respectively) for 30 minutes. All incubations were performed in triplicate. The apparent Km and Vmax values were calculated from analysis of experimental data according to the Michaelis-Menten equation, and the results were graphically represented (for HLM) by an Eadie-Hofstee plot. Kinetic constants were reported as the value+/−S.E. of the parameter estimate.

[2] = as above; assay type: in vitro ADME, monkey; details: monkey liver microsomes 0.1 mg/mL, 30 min
Experimental: (§3) All incubations were performed in triplicate.

[3] = as above; assay type: in vitro ADME, rat; details: rat liver microsomes 0.1 mg/mL, 30 min
Experimental: as §3

[4] = as above; assay type: in vitro ADME, mouse; details: mouse liver microsomes 0.1 mg/mL, 30 min; read-out: Km of M6 formation
Experimental: as §3

[5] = system: human lung cancer cells H-1299; assay: MTT growth inhibition by M14 and M15 (Part 3); assay type: cell-based; details: H-1299, 24 hours, 0 to 80 μM; read-out: IC50 (cell viability, MTT)
Experimental: Cell growth inhibition was determined by a MTT colorimetric assay. […] The reading reflected the number of viable cells and was expressed as a percentage of viable cells in the control. Both HCT-116 and H-1299 cells were cultured in McCoy's 5A medium. All of the above media were supplemented with 10% fetal bovine serum, 1% penicillin/streptomycin, and 1% glutamine, and the cells were kept in a 37° C. incubator with 95% humidity and 5% CO2.

[6] = system: human colon cancer cells HCT-116; assay: Cell Death Detection ELISA apoptosis induction (Part 3); assay type: cell-based; details: HCT-116, 10 μM, 24 hours
Experimental: (§4) Human colon cancer cells HCT-116 and human lung cancer cells H-1299 were plated in 96-well plates at a density of 5000 cells/well and allowed to attach overnight at 37° C. M14, M15, or [6]-shogaol in DMSO, or DMSO control, diluted in media, were added to cells and incubated for an additional 24 hours at 37° C. After 24 hours, media containing compound was removed and cells were lysed in their respective wells with reagents from a Cell Death Detection ELISA^PLUS kit from Roche Applied Science (Mannheim, Germany). Samples were harvested after cell lysates were spun down at 300 g for 10 minutes. To streptavidin coated microplates, 20 μL samples were added, and mixed with 80 μL Immunoreagent, which consisted of anti-histone-biotin, and anti-DNA-POD, and incubated with gentle shaking for 2 hours at room temperature. After incubation, Immunoreagent was removed and samples were washed 3 times with 250 μL incubation buffer. Substrate solution, ABTS, was added to each well and color was developed for 15 minutes before stopping the reaction with ABTS stop solution and reading absorbance on a microplate reader at 430 nm. Experiments were performed in triplicate and the average is given in comparison to DMSO control with standard deviation.

[7] = system: human lung cancer cells H-1299; assay: as above; assay type: cell-based; details: H-1299, 10 μM, 24 hours
Experimental: as §4

[8] = system: HCT-116 colon cancer cells; assay: Apoptosis by FACS analysis of propidium iodide-stained cells; assay type: cell-based, human; details: HCT-116, 40 μM, 24 hours
Experimental: (§5) Apoptosis was determined by FACS analysis of propidium iodide (PI)-stained cells. In brief, cells were trypsinized, washed with cold phosphate-buffered saline (PBS), fixed in ice-cold 70% ethanol for 1 hour, and then resuspended in 2 mL PBS supplemented with 10 μL RNase (100 mg/ml) and incubated at 37° C. for 30 min. After incubation, DNA was stained with 1 mg/mL PI in PBS. Cell staining was analyzed using a Cell Lab Quanta™ SC flow cytometer (Beckman Coulter, Danvers, Mass.) and data were processed using FCS Express software (DeNovo Software, Los Angeles, Calif.). The percentage of apoptotic cells in each sample was determined based on the sub G0 peaks detected in monoparametric histograms.

HT-29 colon cancer cells = assay: as above; assay type: cell-based, human; details: HT-29, 40 μM, 24 hours
Experimental: as §5

Structure (SMILES)	apoptotic cells (TUNEL) (H-1299 cells; H-1299, 10 μM) [%]	apoptotic cells (TUNEL) (H-1299 cells; H-1299, 20 μM) [%]	apoptotic cells (TUNEL) (HCT-116 cells; HCT-116, 10 μM) [%]	apoptotic cells (TUNEL) (HCT-116 cells; HCT-116, 20 μM) [%]	Vmax of M6 formation [1]	Km ([1]; read-out: Km of M6 formation) [µM]	Vmax of M6 formation [2]	Km ([2]; read-out: Km of M6 formation) [µM]	Vmax of M6 formation [3]	Km [4] [µM]	IC50 [5] [µM]	induction of apoptosis compared to DMSO control [6] [fold]	induction of apoptosis compared to DMSO control [7] [fold]	apoptotic cells (FACS, PI) [8] [%]	apoptotic cells (FACS, PI) (HT-29 colon cancer cells) [%]
CCCCC/C=C/C(=O)CCc1ccc(O)c(OC)c1 [[6]-shogaol, reference compound]	5.2	31.6	10.3	31.2	10.82+/−0.47 nanomoles per minute per milli	45.6	2.99+/−0.28 nanomoles per minute per milli	424	8.19+/−0.48 nanomoles per minute per milli	75.7	17.3	1	~2		
CCCCCC(CC(=O)CCc1ccc(O)c(OC)c1)SC[C@H](N)C(=O)O (stereo partly drawn) [M2, 5-cysteinyl-[6]-shogaol]														26.34	14.38
